Measurements taken from PubChem BioAssay (NCI).
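Method: 48-hour compound exposure of cells in 96-well plates, five concentrations, linear interpolation of endpoints. Here, GI50 denotes the concentration required for 50% inhibition of growth. TGI: total growth inhibition.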

How the values were obtained:
Experiment in all cases: DTP human tumour cell line panel, 48 h
[1] = tested on: 786-0 renal
[2] = tested on: A498 renal
[3] = tested on: A549 NSCLC
[4] = tested on: ACHN renal
[5] = tested on: BT-549 breast
[6] = tested on: CAKI-1 renal
[7] = tested on: CCRF-CEM leukemia
[8] = tested on: COLO 205 colon
[9] = tested on: DU-145 prostate
[10] = tested on: EKVX NSCLC
[11] = tested on: HCC-2998 colon
[12] = tested on: HCT-116 colon
[13] = tested on: HCT-15 colon
[14] = tested on: HL-60(TB) leukemia
[15] = tested on: HOP-62 NSCLC
[16] = tested on: HOP-92 NSCLC
[17] = tested on: HS 578T breast
[18] = tested on: HT29 colon
[19] = tested on: IGROV1 ovarian
[20] = tested on: K-562 leukemia
[21] = tested on: KM12 colon
[22] = tested on: LOX IMVI melanoma
[23] = tested on: M14 melanoma
[24] = tested on: MALME-3M melanoma
[25] = tested on: MCF7 breast
[26] = tested on: MDA-MB-231 breast
[27] = tested on: MDA-MB-435
[28] = tested on: MOLT-4 leukemia
[29] = tested on: NCI-H226 lung
[30] = tested on: NCI-H23 lung
[31] = tested on: NCI-H460 lung
[32] = tested on: NCI-H522 lung
[33] = tested on: NCI/ADR-RES ovarian
[34] = tested on: OVCAR-3 ovarian
[35] = tested on: OVCAR-4 ovarian
[36] = tested on: OVCAR-5 ovarian
[37] = tested on: OVCAR-8 ovarian
[38] = tested on: PC-3 prostate
[39] = tested on: RPMI-8226 leukemia
[40] = tested on: RXF 393 renal
[41] = tested on: SF-268 CNS
[42] = tested on: SF-295 CNS
[43] = tested on: SF-539 CNS
[44] = tested on: SK-MEL-2 melanoma
[45] = tested on: SK-MEL-28 melanoma
[46] = tested on: SK-MEL-5 melanoma
[47] = tested on: SK-OV-3 ovarian
[48] = tested on: SN12C renal
[49] = tested on: SNB-19 CNS
[50] = tested on: SNB-75 CNS
[51] = tested on: SR leukemia
[52] = tested on: SW-620 colon
[53] = tested on: T-47D breast
[54] = tested on: TK-10 renal
[55] = tested on: U251 CNS
[56] = tested on: UACC-257 melanoma
[57] = tested on: UACC-62 melanoma
[58] = tested on: UO-31 renal

CN(C)C=Nc1c(I)cc(I)c(CCC(=O)O)c1I
GI50 [1]: > 100 µM
TGI [1]: > 100 µM
GI50 [2]: 81.6 µM
TGI [2]: > 100 µM
GI50 [3]: > 100 µM
TGI [3]: > 100 µM
GI50 [4]: > 100 µM
TGI [4]: > 100 µM
GI50 [5]: > 100 µM
TGI [5]: > 100 µM
GI50 [6]: > 100 µM
TGI [6]: > 100 µM
GI50 [7]: > 100 µM
TGI [7]: > 100 µM
GI50 [8]: > 100 µM
TGI [8]: > 100 µM
GI50 [9]: > 100 µM
TGI [9]: > 100 µM
GI50 [10]: > 100 µM
TGI [10]: > 100 µM
GI50 [11]: > 100 µM
TGI [11]: > 100 µM
GI50 [12]: > 100 µM
TGI [12]: > 100 µM
GI50 [13]: > 100 µM
TGI [13]: > 100 µM
GI50 [14]: 82.9 µM
TGI [14]: > 100 µM
GI50 [15]: > 100 µM
TGI [15]: > 100 µM
GI50 [16]: 45.4 µM
TGI [16]: > 100 µM
GI50 [17]: > 100 µM
TGI [17]: > 100 µM
GI50 [18]: > 100 µM
TGI [18]: > 100 µM
GI50 [19]: > 100 µM
TGI [19]: > 100 µM
GI50 [20]: 59.3 µM
TGI [20]: > 100 µM
GI50 [21]: > 100 µM
TGI [21]: > 100 µM
GI50 [22]: > 100 µM
TGI [22]: > 100 µM
GI50 [23]: > 100 µM
TGI [23]: > 100 µM
GI50 [24]: > 100 µM
TGI [24]: > 100 µM
GI50 [25]: > 100 µM
TGI [25]: > 100 µM
GI50 [26]: > 100 µM
TGI [26]: > 100 µM
GI50 [27]: > 100 µM
TGI [27]: > 100 µM
GI50 [28]: > 100 µM
TGI [28]: > 100 µM
GI50 [29]: > 100 µM
TGI [29]: > 100 µM
GI50 [30]: > 100 µM
TGI [30]: > 100 µM
GI50 [31]: > 100 µM
TGI [31]: > 100 µM
GI50 [32]: > 100 µM
TGI [32]: > 100 µM
GI50 [33]: > 100 µM
TGI [33]: > 100 µM
GI50 [34]: > 100 µM
TGI [34]: > 100 µM
GI50 [35]: > 100 µM
TGI [35]: > 100 µM
GI50 [36]: > 100 µM
TGI [36]: > 100 µM
GI50 [37]: > 100 µM
TGI [37]: > 100 µM
GI50 [38]: 91.5 µM
TGI [38]: > 100 µM
GI50 [39]: > 100 µM
TGI [39]: > 100 µM
GI50 [40]: > 100 µM
TGI [40]: > 100 µM
GI50 [41]: > 100 µM
TGI [41]: > 100 µM
GI50 [42]: > 100 µM
TGI [42]: > 100 µM
GI50 [43]: > 100 µM
TGI [43]: > 100 µM
GI50 [44]: > 100 µM
TGI [44]: > 100 µM
GI50 [45]: > 100 µM
TGI [45]: > 100 µM
GI50 [46]: > 100 µM
TGI [46]: > 100 µM
GI50 [47]: > 100 µM
TGI [47]: > 100 µM
GI50 [48]: > 100 µM
TGI [48]: > 100 µM
GI50 [49]: > 100 µM
TGI [49]: > 100 µM
GI50 [50]: > 100 µM
TGI [50]: > 100 µM
GI50 [51]: > 100 µM
TGI [51]: > 100 µM
GI50 [52]: > 100 µM
TGI [52]: > 100 µM
GI50 [53]: > 100 µM
TGI [53]: > 100 µM
GI50 [54]: > 100 µM
TGI [54]: > 100 µM
GI50 [55]: > 100 µM
TGI [55]: > 100 µM
GI50 [56]: > 100 µM
TGI [56]: > 100 µM
GI50 [57]: > 100 µM
TGI [57]: > 100 µM
GI50 [58]: > 100 µM
TGI [58]: > 100 µM

CC(=O)N[C@@H](Cc1ccc(OP(=O)(O)O)cc1)C(=O)N[C@H]1CCC(=O)N2CCC[C@@H](C(=O)NCc3ccccc3)N2C1=O
GI50 [1]: > 25 µM
TGI [1]: > 25 µM
GI50 [2]: > 25 µM
TGI [2]: > 25 µM
GI50 [3]: > 25 µM
TGI [3]: > 25 µM
GI50 [4]: > 25 µM
TGI [4]: > 25 µM
GI50 [5]: > 25 µM
TGI [5]: > 25 µM
GI50 [6]: > 25 µM
TGI [6]: > 25 µM
GI50 [7]: > 25 µM
TGI [7]: > 25 µM
GI50 [8]: > 25 µM
TGI [8]: > 25 µM
GI50 [9]: > 25 µM
TGI [9]: > 25 µM
GI50 [11]: > 25 µM
TGI [11]: > 25 µM
GI50 [12]: > 25 µM
TGI [12]: > 25 µM
GI50 [13]: > 25 µM
TGI [13]: > 25 µM
GI50 [14]: > 25 µM
TGI [14]: > 25 µM
GI50 [15]: > 25 µM
TGI [15]: > 25 µM
GI50 [17]: > 25 µM
TGI [17]: > 25 µM
GI50 [18]: > 25 µM
TGI [18]: > 25 µM
GI50 [19]: > 25 µM
TGI [19]: > 25 µM
GI50 [20]: > 25 µM
TGI [20]: > 25 µM
GI50 [21]: > 25 µM
TGI [21]: > 25 µM
GI50 [22]: > 25 µM
TGI [22]: > 25 µM
GI50 [23]: > 25 µM
TGI [23]: > 25 µM
GI50 [24]: > 25 µM
TGI [24]: > 25 µM
GI50 [25]: > 25 µM
TGI [25]: > 25 µM
GI50 [26]: > 25 µM
TGI [26]: > 25 µM
GI50 [27]: > 25 µM
TGI [27]: > 25 µM
GI50 [28]: > 25 µM
TGI [28]: > 25 µM
GI50 [29]: > 25 µM
TGI [29]: > 25 µM
GI50 [30]: > 25 µM
TGI [30]: > 25 µM
GI50 [31]: > 25 µM
TGI [31]: > 25 µM
GI50 [32]: > 25 µM
TGI [32]: > 25 µM
GI50 [33]: > 25 µM
TGI [33]: > 25 µM
GI50 [34]: > 25 µM
TGI [34]: > 25 µM
GI50 [35]: > 25 µM
TGI [35]: > 25 µM
GI50 [36]: > 25 µM
TGI [36]: > 25 µM
GI50 [37]: > 25 µM
TGI [37]: > 25 µM
GI50 [38]: > 25 µM
TGI [38]: > 25 µM
GI50 [39]: > 25 µM
TGI [39]: > 25 µM
GI50 [40]: > 25 µM
TGI [40]: > 25 µM
GI50 [41]: > 25 µM
TGI [41]: > 25 µM
GI50 [42]: > 25 µM
TGI [42]: > 25 µM
GI50 [43]: > 25 µM
TGI [43]: > 25 µM
GI50 [44]: > 25 µM
TGI [44]: > 25 µM
GI50 [45]: > 25 µM
TGI [45]: > 25 µM
GI50 [46]: > 25 µM
TGI [46]: > 25 µM
GI50 [47]: > 25 µM
TGI [47]: > 25 µM
GI50 [48]: > 25 µM
TGI [48]: > 25 µM
GI50 [49]: > 25 µM
TGI [49]: > 25 µM
GI50 [50]: > 25 µM
TGI [50]: > 25 µM
GI50 [51]: > 25 µM
TGI [51]: > 25 µM
GI50 [52]: > 25 µM
TGI [52]: > 25 µM
GI50 [53]: > 25 µM
TGI [53]: > 25 µM
GI50 [54]: > 25 µM
TGI [54]: > 25 µM
GI50 [55]: > 25 µM
TGI [55]: > 25 µM
GI50 [56]: > 25 µM
TGI [56]: > 25 µM
GI50 [57]: > 25 µM
TGI [57]: > 25 µM
GI50 [58]: > 25 µM
TGI [58]: > 25 µM
